We go through 13 compounds from patent publication US11739098B2 (BRISTOL-MYERS SQUIBB COMPANY, priority 2017, dated 2023).

Assay type in all cases: cell-based
One experiment concerns the target T1, human TLR7 (Homo sapiens, UniProt Q9NYK1).
T1 construct: host or cells: HEK-Blue cells (HEK293-derived reporter line)
T1 sequence (Q9NYK1 27-1049): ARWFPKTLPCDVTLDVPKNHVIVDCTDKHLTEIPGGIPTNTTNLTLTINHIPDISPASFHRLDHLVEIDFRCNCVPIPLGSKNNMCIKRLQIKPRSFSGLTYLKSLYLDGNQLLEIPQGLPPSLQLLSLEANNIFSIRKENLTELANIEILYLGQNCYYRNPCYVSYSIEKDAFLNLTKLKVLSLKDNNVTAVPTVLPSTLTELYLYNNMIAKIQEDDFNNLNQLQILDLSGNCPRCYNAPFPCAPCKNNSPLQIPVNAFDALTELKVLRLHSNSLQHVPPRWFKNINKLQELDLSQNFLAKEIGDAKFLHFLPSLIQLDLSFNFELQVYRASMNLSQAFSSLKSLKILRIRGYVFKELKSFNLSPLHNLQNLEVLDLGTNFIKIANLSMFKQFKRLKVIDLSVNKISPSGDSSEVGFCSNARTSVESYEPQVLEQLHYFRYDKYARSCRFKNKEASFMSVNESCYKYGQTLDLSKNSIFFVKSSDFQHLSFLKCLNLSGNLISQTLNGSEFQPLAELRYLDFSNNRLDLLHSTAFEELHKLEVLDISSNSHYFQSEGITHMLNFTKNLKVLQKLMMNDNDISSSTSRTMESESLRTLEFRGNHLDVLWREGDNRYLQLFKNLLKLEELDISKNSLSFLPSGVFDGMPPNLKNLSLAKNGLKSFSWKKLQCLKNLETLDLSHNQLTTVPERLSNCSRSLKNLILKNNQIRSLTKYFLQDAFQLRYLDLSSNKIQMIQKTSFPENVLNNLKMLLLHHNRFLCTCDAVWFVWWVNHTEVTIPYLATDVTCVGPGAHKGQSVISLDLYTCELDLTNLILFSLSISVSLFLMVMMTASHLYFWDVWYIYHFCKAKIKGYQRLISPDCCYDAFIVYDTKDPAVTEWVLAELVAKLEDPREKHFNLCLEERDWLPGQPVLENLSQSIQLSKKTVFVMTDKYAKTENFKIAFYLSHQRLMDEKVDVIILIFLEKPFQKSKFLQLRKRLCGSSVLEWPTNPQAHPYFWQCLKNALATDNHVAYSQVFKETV
The experiment is described as follows: TLR7 inhibition reporter assay (HEK-Blue cells, SEAP reporter, gardiquimod stimulation). As to conditions: HEK-Blue cells overexpressing human TLR7, SEAP reporter, gardiquimod 7.5 μM. The method in brief:
(§1)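 After 22 h at 37 °C, SEAP secretion was measured from human TLR7-, TLR8- or TLR9-expressing HEK-Blue reporter cells given compound (0.05 nM–50 μM) 30 min before agonist: 7.5 μM gardiquimod, 15.9 μM R848 or 5 nM ODN2006 respectively. Percent inhibition referenced to agonist-plus-DMSO and known-inhibitor wells.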
On the technique in general: A reporter such as luciferase makes a cellular process visible.

The next experiment deals with T2, human TLR8 (Homo sapiens, UniProt Q9NR97).
T2 construct: host or cells: HEK-Blue cells (HEK293-derived reporter line)
T2 sequence (Q9NR97 27-1041): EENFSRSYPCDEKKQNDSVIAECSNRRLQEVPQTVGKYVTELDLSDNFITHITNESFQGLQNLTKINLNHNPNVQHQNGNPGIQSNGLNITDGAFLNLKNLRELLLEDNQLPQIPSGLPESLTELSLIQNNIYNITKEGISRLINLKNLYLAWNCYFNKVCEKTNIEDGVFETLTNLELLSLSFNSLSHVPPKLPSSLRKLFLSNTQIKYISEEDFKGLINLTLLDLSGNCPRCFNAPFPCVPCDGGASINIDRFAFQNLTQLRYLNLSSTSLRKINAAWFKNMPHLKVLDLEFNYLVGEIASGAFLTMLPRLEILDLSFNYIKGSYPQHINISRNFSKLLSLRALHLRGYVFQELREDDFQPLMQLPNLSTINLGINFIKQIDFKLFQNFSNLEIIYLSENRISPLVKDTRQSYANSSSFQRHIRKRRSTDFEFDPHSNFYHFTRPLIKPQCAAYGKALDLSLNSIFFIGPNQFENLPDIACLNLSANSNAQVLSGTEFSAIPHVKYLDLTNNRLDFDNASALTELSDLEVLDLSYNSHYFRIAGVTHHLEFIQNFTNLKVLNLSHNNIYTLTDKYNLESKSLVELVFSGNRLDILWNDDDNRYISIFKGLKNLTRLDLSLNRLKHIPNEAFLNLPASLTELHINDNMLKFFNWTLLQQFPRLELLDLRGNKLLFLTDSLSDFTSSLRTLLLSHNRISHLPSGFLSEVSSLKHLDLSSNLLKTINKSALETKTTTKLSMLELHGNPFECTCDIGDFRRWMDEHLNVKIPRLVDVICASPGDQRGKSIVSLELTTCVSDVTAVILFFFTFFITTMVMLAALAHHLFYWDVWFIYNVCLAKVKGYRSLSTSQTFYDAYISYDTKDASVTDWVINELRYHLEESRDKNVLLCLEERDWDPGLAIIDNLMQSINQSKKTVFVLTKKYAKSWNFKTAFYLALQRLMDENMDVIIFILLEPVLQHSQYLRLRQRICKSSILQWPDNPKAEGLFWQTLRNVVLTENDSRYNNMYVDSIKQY
The experiment is described as follows: TLR8 inhibition reporter assay (HEK-Blue cells, SEAP reporter, R848 stimulation). As to conditions: HEK-Blue cells overexpressing human TLR8, SEAP reporter, R848 15.9 μM. Summed up: as §1

For a further experiment, the target named is T3, human TLR9 (Homo sapiens, UniProt Q9NR96).
T3 construct: host or cells: HEK-Blue cells (HEK293-derived reporter line)
T3 sequence (Q9NR96 26-1032): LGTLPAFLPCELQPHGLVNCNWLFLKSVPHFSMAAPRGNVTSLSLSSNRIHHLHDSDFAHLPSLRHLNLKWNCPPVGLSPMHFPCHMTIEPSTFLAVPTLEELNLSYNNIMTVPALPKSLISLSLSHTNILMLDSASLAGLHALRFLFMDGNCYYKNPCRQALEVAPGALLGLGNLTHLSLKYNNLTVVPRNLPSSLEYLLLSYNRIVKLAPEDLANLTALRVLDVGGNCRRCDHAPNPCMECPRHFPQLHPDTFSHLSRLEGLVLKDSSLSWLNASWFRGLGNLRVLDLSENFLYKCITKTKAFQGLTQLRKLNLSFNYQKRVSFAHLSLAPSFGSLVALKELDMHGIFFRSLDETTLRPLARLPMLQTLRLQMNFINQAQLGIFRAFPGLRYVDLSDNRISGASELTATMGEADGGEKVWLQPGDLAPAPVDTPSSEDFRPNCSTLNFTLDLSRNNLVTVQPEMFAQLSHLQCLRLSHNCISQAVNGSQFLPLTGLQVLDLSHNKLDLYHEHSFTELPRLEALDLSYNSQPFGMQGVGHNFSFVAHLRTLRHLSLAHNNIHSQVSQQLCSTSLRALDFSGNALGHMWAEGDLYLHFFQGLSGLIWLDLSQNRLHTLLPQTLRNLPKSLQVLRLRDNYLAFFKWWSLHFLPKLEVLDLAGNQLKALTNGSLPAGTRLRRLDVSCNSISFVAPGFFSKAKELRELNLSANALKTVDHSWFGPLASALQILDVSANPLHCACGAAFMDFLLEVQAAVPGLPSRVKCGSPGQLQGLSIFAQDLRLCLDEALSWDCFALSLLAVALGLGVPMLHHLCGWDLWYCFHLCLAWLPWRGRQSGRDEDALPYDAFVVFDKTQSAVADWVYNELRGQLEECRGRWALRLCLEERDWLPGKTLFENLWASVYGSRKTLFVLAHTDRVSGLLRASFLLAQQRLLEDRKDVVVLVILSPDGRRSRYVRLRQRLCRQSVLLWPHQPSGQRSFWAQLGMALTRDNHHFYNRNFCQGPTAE
The experiment is described as follows: TLR9 inhibition reporter assay (HEK-Blue cells, SEAP reporter, ODN2006 stimulation). As to conditions: HEK-Blue cells overexpressing human TLR9, SEAP reporter, ODN2006 5 nM. The method in brief: as §1

Where only a bound is given, the exact number is not on record here.

Broadly, the IC50 is the concentration needed to halve the response being measured. Lower therefore signals greater potency in that assay. As to `CC(C)c1c(-c2ccnc3[nH]ncc23)[nH]c2ccc(C3CCN(C(=O)CNCC(C)(C)N4CCOCC4)CC3)cc12` [Example 580, 1-(4-(3-isopropyl-2-(1H-pyrazolo[3,4-b]pyridin-4-yl)-1H-indol-5-yl)piperidin-1-yl)-2-((2-methyl-2-morpholinopropyl)amino)ethan-1-one], the IC50 at human TLR7 was below 100 nM; against human TLR8, below 100 nM; on human TLR9 it was 1000 to 50000 nM.

For `CC(C)c1c(-c2ccc3[nH]cnc3c2)[nH]c2ccc(C3CCNCC3)cc12` [Example 50, 5-(3-isopropyl-5-(piperidin-4-yl)-1H-indol-2-yl)-1H-benzo[d]imidazole], the IC50 against human TLR7 was in the range of 100 to 1000 nM; on human TLR8, 1000 to 50000 nM; on human TLR9 it was 1000 to 50000 nM.

Consider `CCc1c(-c2ccnc3c(N)n[nH]c23)[nH]c2ccc(C3CCNCC3)cc12` [Example 238, 7-(3-ethyl-5-(piperidin-4-yl)-1H-indol-2-yl)-1H-pyrazolo[4,3-b]pyridin-3-amine], for which the figures for the IC50 on human TLR7, against human TLR8 and against human TLR9 were below 100 nM, 100 to 1000 nM and 1000 to 50000 nM, respectively.

On to `Cc1nc2cc(-c3[nH]c4ccc(C5CCNCC5)cc4c3C(C)C)cc(C)c2o1` [Example 92, 5-(3-isopropyl-5-(piperidin-4-yl)-1H-indol-2-yl)-2,7-dimethylbenzo[d]oxazole], for which the IC50 on human TLR7 is below 100 nM; against human TLR8, 100 to 1000 nM; against human TLR9, 1000 to 50000 nM.

Take `CNCC(=O)N1CCC(c2ccc3[nH]c(-c4cnc5ccnn5c4)c(C(C)C)c3c2)CC1` [Example 503, 1-(4-(3-isopropyl-2-(pyrazolo[1,5-a]pyrimidin-6-yl)-1H-indol-5-yl)piperidin-1-yl)-2-(methylamino)ethan-1-one]: the results for the IC50 on human TLR7, on human TLR8 and on human TLR9 were 100 to 1000 nM, above 3130 nM and 100 to 1000 nM, respectively.

Regarding `Cc1cc(-c2[nH]c3ccc(C4CCN(C5COC5)CC4)cc3c2C(C)C)cc2ccnn12` [Example 720, 5-(3-isopropyl-5-(1-(oxetan-3-yl)piperidin-4-yl)-1H-indol-2-yl)-7-methylpyrazolo[1,5-a]pyridine], the IC50 against human TLR7 is below 100 nM; against human TLR8, below 100 nM; against human TLR9 it was 1000 to 50000 nM.

For the compound `Cc1cc(-c2[nH]c3ccc(C4CCN(CC(C)(C)O)CC4)cc3c2C(C)C)cc2ncnn12` [Example 756, 1-(4-(3-isopropyl-2-(5-methyl-[1,2,4]triazolo[1,5-a]pyridin-7-yl)-1H-indol-5-yl)piperidin-1-yl)-2-methylpropan-2-ol], the figures for the IC50 on human TLR7, against human TLR8 and at human TLR9 were below 100 nM, below 100 nM and 1000 to 50000 nM, respectively.

For the compound `COC(=O)C1CC(N2CCC(c3ccc4[nH]c(-c5ccnc6[nH]ncc56)c(C(C)C)c4c3)CC2)CCN1` (stereo not drawn) [Example 831, methyl 4-(3-isopropyl-2-(1H-pyrazolo[3,4-b]pyridin-4-yl)-1H-indol-5-yl)-[1,4′-bipiperidine]-2′-carboxylate], the IC50 against human TLR7 is below 100 nM; at human TLR8 it was below 100 nM; against human TLR9, 100 to 1000 nM.

As for `CNC(=O)CN1CCC(c2ccc3[nH]c(-c4ccn5ccnc5c4)c(CC(F)F)c3c2)CC1` [Example 446, 2-(4-(3-(2,2-difluoroethyl)-2-(imidazo[1,2-a]pyridin-7-yl)-1H-indol-5-yl)piperidin-1-yl)-N-methylacetamide], the results for the IC50 against human TLR7, against human TLR8 and against human TLR9 were below 100 nM, 100 to 1000 nM and 100 to 1000 nM, respectively.

As to `Cc1c(-c2ncnc3[nH]ccc23)[nH]c2ccc(C3CCN(C4CCN(C(C)C)CC4)CC3)cc12` [Example 814, 4-(5-(1′-isopropyl-[1,4′-bipiperidin]-4-yl)-3-methyl-1H-indol-2-yl)-7H-pyrrolo[2,3-d]pyrimidine], the IC50 was 100 to 1000 nM at human TLR7, below 100 nM against human TLR8 and below 100 nM against human TLR9.

Take `CNCC(=O)N1CCC(c2ccc3[nH]c(-c4cc(F)c5nccn5c4)c(C(C)C)c3c2)CC1` [Example 547, 1-(4-(2-(8-fluoroimidazo[1,2-a]pyridin-6-yl)-3-isopropyl-1H-indol-5-yl)piperidin-1-yl)-2-(methylamino)ethan-1-one]: the half-inhibitory concentration (IC50) is below 100 nM against human TLR7, 100 to 1000 nM at human TLR8 and 100 to 1000 nM on human TLR9.

Regarding `CC(C)c1c(-c2ccnc3[nH]ncc23)[nH]c2ccc(C3CCN(Cc4ncn(C)n4)CC3)cc12` [Example 865, 4-(3-isopropyl-5-(1-((1-methyl-1H-1,2,4-triazol-3-yl)methyl)piperidin-4-yl)-1H-indol-2-yl)-1H-pyrazolo[3,4-b]pyridine], the IC50 at human TLR7 is below 100 nM; at human TLR8, below 100 nM; at human TLR9, 1000 to 50000 nM.

Turning to `Cc1cc(-c2[nH]c3ccc(C4CCN(C(=O)CN(C)C)CC4)cc3c2C(C)C)nn2ncnc12` [Example 454, 2-(dimethylamino)-1-(4-(3-isopropyl-2-(8-methyl-[1,2,4]triazolo[1,5-b]pyridazin-6-yl)-1H-indol-5-yl)piperidin-1-yl)ethan-1-one], the IC50 at human TLR7 is below 100 nM; at human TLR8 it was below 100 nM; against human TLR9, 1000 to 50000 nM.
